One assay concerns the target T1, IRAK4 (Homo sapiens, UniProt Q9NWZ3).
T1 sequence (Q9NWZ3 1-460): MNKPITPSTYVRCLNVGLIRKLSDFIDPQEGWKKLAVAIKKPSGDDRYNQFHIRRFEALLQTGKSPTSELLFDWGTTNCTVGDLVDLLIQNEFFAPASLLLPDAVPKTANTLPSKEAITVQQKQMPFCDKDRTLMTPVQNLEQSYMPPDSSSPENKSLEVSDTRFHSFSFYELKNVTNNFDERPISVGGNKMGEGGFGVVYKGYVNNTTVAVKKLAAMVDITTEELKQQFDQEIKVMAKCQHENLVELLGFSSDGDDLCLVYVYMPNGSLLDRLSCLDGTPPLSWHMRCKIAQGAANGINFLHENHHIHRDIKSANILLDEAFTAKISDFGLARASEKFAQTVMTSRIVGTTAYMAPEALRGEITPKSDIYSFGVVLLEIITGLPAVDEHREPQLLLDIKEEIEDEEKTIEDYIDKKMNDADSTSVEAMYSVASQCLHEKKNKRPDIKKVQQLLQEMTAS
The assay is described as follows: DiscoverX KINOMEscan active site-directed competition binding, IRAK4. The settings on record: no ATP.
Source text: (§1) Kinase binding data were obtained for various exemplary compounds prepared according to Examples 1-8 using the DiscoverX KINOMEscan® active site-directed competition binding site-directed assay protocol described below. […] As a result, the data report thermodynamic interaction affinities (Kd values), rather than IC50 values that are dependent on ATP concentrations. The assay uses a DNA-tagged version of the protein kinase, and an immobilized ligand bound to a solid support. Compounds that directly or indirectly prevent kinase binding to the immobilized ligand reduce the amount of kinase captured on the solid support, which is detected using an ultra-sensitive qPCR method. Affinity constants reported from the assay have been reported to be independent of the immobilized ligand used that is coupled to the solid support (See supplemental information in Fabian, M. A. et. al., (2005) Nat. Biotechnol. 23, 329-336; Wodicka, L. M. et. al., (2010) Chem. Biol. 17, 1241-1249.)
(§2) Kinase-tagged T7 phage strains were prepared in an E. coli host derived from the BL21 strain. E. coli were grown to log-phase and infected with T7 phage and incubated with shaking at 32 °C until lysis. The lysates were centrifuged and filtered to remove cell debris. The remaining kinases were produced in HEK-293 cells and subsequently tagged with DNA for qPCR detection. Streptavidin-coated magnetic beads were treated with biotinylated small molecule ligands for 30 minutes at room temperature to generate affinity resins for kinase assays. The liganded beads were blocked with excess biotin and washed with blocking buffer (SeaBlock (Pierce), 1% BSA, 0.05% Tween 20, 1 mM DTT) to remove unbound ligand and to reduce non-specific binding. […] Test compounds were prepared as 111x stocks in 100% DMSO. Kds were determined using an 11-point 3-fold compound dilution series with three DMSO control points. All compounds for Kd measurements are distributed by acoustic transfer (non-contact dispensing) in 100% DMSO. The compounds were then diluted directly into the assays such that the final concentration of DMSO was 0.9%. All reactions were performed in polypropylene 384-well plates. Each was a final volume of 0.02 mL. The assay plates were incubated at room temperature with shaking for 1 hour and the affinity beads were washed with wash buffer (1×PBS, 0.05% Tween 20). The beads were then re-suspended in elution buffer (1×PBS, 0.05% Tween 20, 0.5 μM nonbiotinylated affinity ligand) and incubated at room temperature with shaking for 30 minutes. The kinase concentration in the eluates was measured by qPCR. Binding constants (Kds) were calculated with a standard dose-response curve using the Hill equation. The Hill Slope was set to −1. Curves were fitted using a non-linear least square fit with the Levenberg-Marquardt algorithm.
as §1, with “9-12” for “1-8”
(§3) Kinase-tagged T7 phage strains were prepared in an E. coli host derived from the BL21 strain. […]

The next assay concerns the target T2, FLT3 ITD (Homo sapiens, UniProt P36888, ITD).
T2 construct: T7 phage/E. coli or HEK-293 expression
T2 sequence (P36888 27-993): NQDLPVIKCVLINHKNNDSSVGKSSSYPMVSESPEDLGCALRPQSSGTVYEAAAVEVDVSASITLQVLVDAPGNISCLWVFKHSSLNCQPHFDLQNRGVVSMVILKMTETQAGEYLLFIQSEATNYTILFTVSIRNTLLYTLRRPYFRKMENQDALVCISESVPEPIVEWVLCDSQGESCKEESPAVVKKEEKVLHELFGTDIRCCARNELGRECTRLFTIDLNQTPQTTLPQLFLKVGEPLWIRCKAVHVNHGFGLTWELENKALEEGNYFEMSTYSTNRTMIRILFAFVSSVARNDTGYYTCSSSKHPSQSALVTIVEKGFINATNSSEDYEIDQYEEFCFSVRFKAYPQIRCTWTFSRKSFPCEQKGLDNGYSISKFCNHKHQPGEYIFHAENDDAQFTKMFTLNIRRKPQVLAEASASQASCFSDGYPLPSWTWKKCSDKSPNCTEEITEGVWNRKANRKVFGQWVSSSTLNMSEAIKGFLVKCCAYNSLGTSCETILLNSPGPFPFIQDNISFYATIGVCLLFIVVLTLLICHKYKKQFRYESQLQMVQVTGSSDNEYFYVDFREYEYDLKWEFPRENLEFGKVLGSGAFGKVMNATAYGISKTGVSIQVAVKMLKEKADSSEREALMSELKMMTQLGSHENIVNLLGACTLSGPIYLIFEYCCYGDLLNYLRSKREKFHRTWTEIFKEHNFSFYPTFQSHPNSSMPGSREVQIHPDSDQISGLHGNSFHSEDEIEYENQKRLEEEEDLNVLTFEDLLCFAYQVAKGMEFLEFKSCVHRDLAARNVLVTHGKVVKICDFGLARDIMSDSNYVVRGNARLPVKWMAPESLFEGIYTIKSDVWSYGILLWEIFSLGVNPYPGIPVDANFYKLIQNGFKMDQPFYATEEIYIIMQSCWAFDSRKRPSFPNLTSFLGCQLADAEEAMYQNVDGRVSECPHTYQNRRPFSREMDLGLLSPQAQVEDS
The assay is described as follows: DiscoverX KINOMEscan active site-directed competition binding, FLT3 ITD. The settings on record: no ATP.
Source text: as §1, §2
as §1, with “9-12” for “1-8”
as §3

The term Kd denotes a measure of binding affinity in units of concentration. Read a high Kd as lower affinity. With `COc1cn2ncc(-c3nc(N[C@@H]4CCCNC4)ncc3F)c2nc1C1CC1` [Compound 14a, (R)-4-(5-cyclopropyl-6-methoxypyrazolo[1,5-a]pyrimidin-3-yl)-5-fluoro-N-(piperidin-3-yl)pyrimidin-2-amine], the equilibrium dissociation constant (Kd) on IRAK4 (Table 18) and at FLT3 ITD (Table 18) was under 0.17 nM each time.

For the molecule `COc1cn2ncc(-c3nc(N[C@H]4CNCC[C@@H]4F)c(C#N)cc3F)c2nc1C(C)(C)O` [Compound 10, 5-fluoro-2-(((3S,4S)-4-fluoropiperidin-3-yl)amino)-6-(5-(2-hydroxypropan-2-yl)-6-methoxypyrazolo[1,5-a]pyrimidin-3-yl)nicotinonitrile], the Kd was under 0.17 nM at IRAK4 (Table 12) and 0.28 nM on FLT3 ITD (Table 12).

In the case of `COc1cn2ncc(-c3nc(N[C@H]4CNCC[C@@H]4F)c(C#N)cc3F)c2nc1C1CC1` [Compound 7, 6-(5-cyclopropyl-6-methoxypyrazolo[1,5-a]pyrimidin-3-yl)-5-fluoro-2-(((3S,4S)-4-fluoropiperidin-3-yl)amino)nicotinonitrile], the Kd on IRAK4 (Table 12) was under 0.17 nM; on FLT3 ITD (Table 12) it was 0.41 nM.

As to `COc1cn2ncc(-c3nc(N[C@H]4CNCC[C@@H]4F)ncc3F)c2nc1C(C)(C)O` [Compound 6a, 2-(3-(5-fluoro-2-(((3S,4S)-4-fluoropiperidin-3-yl)amino)pyrimidin-4-yl)-6-methoxypyrazolo[1,5-a]pyrimidin-5-yl)propan-2-ol], the equilibrium dissociation constant (Kd) on IRAK4 (Table 18) came to 0.2 nM; on FLT3 ITD (Table 18), 0.23 nM.

On to `COc1cn2ncc(-c3nc(N[C@H]4CNCC[C@@H]4F)ncc3F)c2nc1C1CC1` [Compound 15a, 4-(5-cyclopropyl-6-methoxypyrazolo[1,5-a]pyrimidin-3-yl)-5-fluoro-N-((3S,4S)-4-fluoropiperidin-3-yl)pyrimidin-2-amine], for which the Kd was under 0.17 nM at IRAK4 (Table 18) and 0.25 nM at FLT3 ITD (Table 18).

In the case of `COc1cn2ncc(-c3cncc(N[C@H]4CNCC[C@@H]4F)n3)c2nc1C1CC1` [Compound 12a, 6-(5-cyclopropyl-6-methoxypyrazolo[1,5-a]pyrimidin-3-yl)-N-((3S,4S)-4-fluoropiperidin-3-yl)pyrazin-2-amine], the dissociation constant (Kd) is under 0.17 nM at IRAK4 (Table 18) and 0.39 nM on FLT3 ITD (Table 18).

With `COc1cn2ncc(-c3nc(N[C@H]4CNCC[C@@H]4F)c(F)cc3F)c2nc1C(C)(C)O` [Compound 13, 2-(3-(3,5-difluoro-6-(((3S,4S)-4-fluoropiperidin-3-yl)amino)pyridin-2-yl)-6-methoxypyrazolo[1,5-a]pyrimidin-5-yl)propan-2-ol], the Kd on IRAK4 (Table 12) was under 0.17 nM; at FLT3 ITD (Table 12), 0.21 nM.

`COc1cn2ncc(-c3ccnc(N[C@H]4CNCC[C@@H]4F)n3)c2nc1C1CC1` [Compound 7a, 4-(5-cyclopropyl-6-methoxypyrazolo[1,5-a]pyrimidin-3-yl)-N-((3S,4S)-4-fluoropiperidin-3-yl)pyrimidin-2-amine]: the Kd amounted to 0.36 nM at IRAK4 (Table 18) and 0.53 nM on FLT3 ITD (Table 18).

The values above are taken from US20260374773A1, “MULTI-CYCLIC IRAK AND FLT3 INHIBITING COMPOUNDS AND USES THEREOF” (CHILDREN'S HOSPITAL MEDICAL CENTER, priority 2022, published 2026).
